Results on four compounds are retold here after ChEMBL document CHEMBL1212772 (2010).

For orientation: MIC means the lowest concentration found to suppress growth.

What all share (format): functional
One experiment concerns Enterobacter cloacae. In words: Antimicrobial activity against Enterobacter cloacae OC 4080 overexpressing beta-lactamase AmpC assessed as inhibition of growth by broth dilution method. On the technique in general: In broth dilution the organism is exposed to a series of concentrations in liquid medium.
The test system of experiment [1] is Serratia marcescens. Put plainly: Antimicrobial activity against wild type Serratia marcescens OC 7554 expressing beta-lactamase SME-3 and containing Carbapenemase assessed as inhibition of growth by broth dilution method.
Experiment [2] has as its system Pseudomonas aeruginosa. Put plainly: Antimicrobial activity against Pseudomonas aeruginosa OC 12115 expressing beta-lactamase SPM-1 and containing Carbapenemase assessed as inhibition of growth by broth dilution method.
The test system of experiment [3] is Serratia marcescens. In words: Antimicrobial activity against wild type Serratia marcescens OC 7555 deficient in beta-lactamase assessed as inhibition of growth by broth dilution method.
Experiment [4] relates to Escherichia coli. Put plainly: Antimicrobial activity against Escherichia coli DH5-alpha expressing beta-lactamase TEM-1 assessed as inhibition of growth by broth dilution method.
Experiment [5] concerns Pseudomonas aeruginosa. In words: Antimicrobial activity against Pseudomonas aeruginosa OC 4083 expressing beta-lactamase OXA-10 and containing Oxacillinase assessed as inhibition of growth by broth dilution method.
The subject of experiment [6] is Klebsiella pneumoniae. Put plainly: Antimicrobial activity against wild type Klebsiella pneumoniae OC 15263 expressing beta-lactamase SHV-1 assessed as inhibition of growth by broth dilution method.
For experiment [7], the system named is Klebsiella pneumoniae. In words: Antimicrobial activity against Klebsiella pneumoniae OC 5367 expressing beta-lactamase KPC-2 and containing Carbapenemase assessed as inhibition of growth by broth dilution method.
Experiment [8] deals with Klebsiella pneumoniae. Put plainly: Antimicrobial activity against Klebsiella pneumoniae OC 4094 expressing extended-spectrum Beta-lactamase TEM-26 assessed as inhibition of growth by broth dilution method.
Experiment [9] relates to Escherichia coli. Put plainly: Antimicrobial activity against Escherichia coli OC 6697 expressing beta-lactamase CMY-2 and containing plasmid AmpC assessed as inhibition of growth by broth dilution method.
The subject of a further experiment is Klebsiella oxytoca. In words: Antimicrobial activity against wild type Klebsiella oxytoca OC 4076 expressing Beta-lactamase K1 assessed as inhibition of growth by broth dilution method.
For experiment [10], the system named is Acinetobacter baumannii. Put plainly: Antimicrobial activity against Acinetobacter baumannii OC 11738 expressing beta-lactamase OXA-23 and containing Carbapenemase assessed as inhibition of growth by broth dilution method.
Experiment [11] concerns Pseudomonas aeruginosa. Put plainly: Antimicrobial activity against Pseudomonas aeruginosa OC 7052 expressing beta-lactamase VIM-2 and containing Carbapenemase assessed as inhibition of growth by broth dilution method.
The subject of experiment [12] is Pseudomonas aeruginosa. In words: Antimicrobial activity against wild type Pseudomonas aeruginosa ATCC 27853 expressing beta-lactamase AmpC assessed as inhibition of growth by broth dilution method.
In experiment [13] the test system is Escherichia coli. Put plainly: Antimicrobial activity against Escherichia coli OC 11732 expressing extended-spectrum beta-lactamase CTX-M-15 assessed as inhibition of growth by broth dilution method.
Experiment [14] relates to Pseudomonas aeruginosa. In words: Antimicrobial activity against Pseudomonas aeruginosa OC 4352 overexpressing beta-lactamase AmpC assessed as inhibition of growth by broth dilution method.
Experiment [15] relates to Klebsiella pneumoniae. Put plainly: Antimicrobial activity against Klebsiella pneumoniae OC 4238 overexpressing beta-lactamase SHV-1 assessed as inhibition of growth by broth dilution method.
Experiment [16] has as its system Acinetobacter baumannii. Put plainly: Antimicrobial activity against wild type Acinetobacter baumannii OC 16708 deficient in beta-lactamase assessed as inhibition of growth by broth dilution method.
The test system of experiment [17] is Escherichia coli. Put plainly: Antimicrobial activity against wild type Escherichia coli ATCC 25922 deficient in beta-lactamase assessed as inhibition of growth by broth dilution method.
Experiment [18] concerns Pseudomonas aeruginosa. Put plainly: Antimicrobial activity against Pseudomonas aeruginosa OC 13996 expressing beta-lactamase IMP-1 and containing Carbapenemase assessed as inhibition of growth by broth dilution method.

Converted amounts (≈) assume the structure as drawn.

In the case of `CC(C)(O/N=C(\C(=O)N[C@@H]1C(=O)N2C(C(=O)[O-])=C(C[n+]3ccccc3)CS[C@H]12)c1csc(N)n1)C(=O)O` [CEFTAZIDIME], the minimal inhibitory concentration (MIC) in the experiment with Enterobacter cloacae is 32 µg/mL (≈ 58.5 µM); in the experiment with Serratia marcescens [1], 0.5 µg/mL (≈ 0.915 µM); with Pseudomonas aeruginosa [2], more than 256 µg/mL; in the experiment on Serratia marcescens [3] it was 0.5 µg/mL (≈ 0.915 µM); in the experiment with Escherichia coli [4] it was 0.5 µg/mL (≈ 0.915 µM); in the experiment on Pseudomonas aeruginosa [5] it was more than 4 µg/mL. For the same compound, the MIC in the experiment with Klebsiella pneumoniae [6] was 0.12 µg/mL (≈ 0.22 µM); in the experiment with Klebsiella pneumoniae [7] it was 32 µg/mL (≈ 58.5 µM); in the experiment on Klebsiella pneumoniae [8], more than 256 µg/mL; in the experiment on Escherichia coli [9], more than 128 µg/mL; with Klebsiella oxytoca it was 1 µg/mL (≈ 1.83 µM); in the experiment with Acinetobacter baumannii [10], more than 256 µg/mL. Moreover, the minimum inhibitory concentration (MIC) is 64 µg/mL (≈ 117 µM) with Pseudomonas aeruginosa [11]; 2 µg/mL (≈ 3.66 µM) in the experiment on Pseudomonas aeruginosa [12]; 32 µg/mL (≈ 58.5 µM) in the experiment with Escherichia coli [13]; 32 µg/mL (≈ 58.5 µM) with Pseudomonas aeruginosa [14]; 2 µg/mL (≈ 3.66 µM) with Klebsiella pneumoniae [15]; 4 µg/mL (≈ 7.32 µM) with Acinetobacter baumannii [16]. Further, the MIC was 0.25 µg/mL (≈ 0.457 µM) with Escherichia coli [17] and more than 256 µg/mL in the experiment with Pseudomonas aeruginosa [18].
With `C[C@@H](O)[C@H]1C(=O)N2C(C(=O)O)=C(S[C@@H]3CN[C@H](CNS(N)(=O)=O)C3)[C@H](C)[C@H]12` [DORIPENEM], the minimal inhibitory concentration (MIC) in the experiment with Enterobacter cloacae was 0.25 µg/mL (≈ 0.595 µM); with Serratia marcescens [1] it was 128 µg/mL (≈ 304 µM); in the experiment with Pseudomonas aeruginosa [2], more than 256 µg/mL; in the experiment with Serratia marcescens [3] it was 0.06 µg/mL (≈ 0.143 µM); with Escherichia coli [4], 0.06 µg/mL (≈ 0.143 µM); in the experiment with Pseudomonas aeruginosa [5] it was 2 µg/mL (≈ 4.76 µM). Besides, the MIC is 0.06 µg/mL (≈ 0.143 µM) with Klebsiella pneumoniae [6]; 8 µg/mL (≈ 19 µM) in the experiment on Klebsiella pneumoniae [7]; 0.12 µg/mL (≈ 0.285 µM) in the experiment with Klebsiella pneumoniae [8]; 0.06 µg/mL (≈ 0.143 µM) in the experiment with Escherichia coli [9]; 0.06 µg/mL (≈ 0.143 µM) in the experiment with Klebsiella oxytoca; 32 µg/mL (≈ 76.1 µM) with Acinetobacter baumannii [10]. For the same compound, the MIC with Pseudomonas aeruginosa [11] stood at 32 µg/mL (≈ 76.1 µM); in the experiment on Pseudomonas aeruginosa [12] it was 0.5 µg/mL (≈ 1.19 µM); with Escherichia coli [13], 0.06 µg/mL (≈ 0.143 µM); in the experiment on Pseudomonas aeruginosa [14], 0.5 µg/mL (≈ 1.19 µM); in the experiment with Klebsiella pneumoniae [15], 0.06 µg/mL (≈ 0.143 µM); in the experiment on Acinetobacter baumannii [16], 0.25 µg/mL (≈ 0.595 µM). Besides, the values for the MIC with Escherichia coli [17] and in the experiment with Pseudomonas aeruginosa [18] were 0.03 µg/mL (≈ 0.0713 µM) and more than 256 µg/mL, respectively.
As for `C[C@@H](O)[C@H]1C(=O)N2C(C(=O)O)=C(SCCNC=N)C[C@H]12` [IMIPENEM ANHYDROUS], the MIC in the experiment with Enterobacter cloacae is 1 µg/mL (≈ 3.34 µM); in the experiment on Serratia marcescens [1], more than 256 µg/mL; in the experiment on Pseudomonas aeruginosa [2], more than 256 µg/mL; in the experiment with Serratia marcescens [3], 0.25 µg/mL (≈ 0.835 µM); in the experiment on Pseudomonas aeruginosa [5], 1 µg/mL (≈ 3.34 µM); in the experiment on Klebsiella pneumoniae [6], 0.5 µg/mL (≈ 1.67 µM). Further, the MIC in the experiment with Klebsiella pneumoniae [7] was 16 µg/mL (≈ 53.4 µM); in the experiment with Klebsiella pneumoniae [8], 0.5 µg/mL (≈ 1.67 µM); in the experiment on Escherichia coli [9], 0.5 µg/mL (≈ 1.67 µM); in the experiment with Klebsiella oxytoca it was 0.25 µg/mL (≈ 0.835 µM); with Acinetobacter baumannii [10], 64 µg/mL (≈ 214 µM); in the experiment with Pseudomonas aeruginosa [11], 64 µg/mL (≈ 214 µM). Further, the minimum inhibitory concentration (MIC) in the experiment on Pseudomonas aeruginosa [12] was 2 µg/mL (≈ 6.68 µM); in the experiment with Escherichia coli [13] it was 0.25 µg/mL (≈ 0.835 µM); with Pseudomonas aeruginosa [14], 2 µg/mL (≈ 6.68 µM); with Klebsiella pneumoniae [15], 0.25 µg/mL (≈ 0.835 µM); in the experiment on Acinetobacter baumannii [16], 0.25 µg/mL (≈ 0.835 µM); with Pseudomonas aeruginosa [18], more than 256 µg/mL.
With `C[C@@H](O)[C@H]1C(=O)N2C(C(=O)O)=C(S[C@@H]3CN[C@H](C(=O)N(C)C)C3)[C@H](C)[C@H]12` [MEROPENEM], the MIC in the experiment with Enterobacter cloacae is 0.25 µg/mL (≈ 0.652 µM); in the experiment on Serratia marcescens [1], 128 µg/mL (≈ 334 µM); in the experiment with Pseudomonas aeruginosa [2] it was more than 256 µg/mL; in the experiment on Serratia marcescens [3], 0.03 µg/mL (≈ 0.0782 µM); in the experiment with Escherichia coli [4], 0.03 µg/mL (≈ 0.0782 µM); in the experiment with Pseudomonas aeruginosa [5] it was 2 µg/mL (≈ 5.22 µM). The MIC was determined as 0.03 µg/mL (≈ 0.0782 µM) with Klebsiella pneumoniae [6]; 0.06 µg/mL (≈ 0.156 µM) with Klebsiella pneumoniae [8]; 0.06 µg/mL (≈ 0.156 µM) in the experiment on Escherichia coli [9]; 0.06 µg/mL (≈ 0.156 µM) in the experiment on Klebsiella oxytoca; 64 µg/mL (≈ 167 µM) in the experiment with Acinetobacter baumannii [10]; 32 µg/mL (≈ 83.4 µM) in the experiment on Pseudomonas aeruginosa [11]. For the same compound, the MIC with Pseudomonas aeruginosa [12] was 0.5 µg/mL (≈ 1.3 µM); in the experiment on Escherichia coli [13], 0.03 µg/mL (≈ 0.0782 µM); in the experiment on Pseudomonas aeruginosa [14], 0.5 µg/mL (≈ 1.3 µM); with Klebsiella pneumoniae [15], 0.03 µg/mL (≈ 0.0782 µM); in the experiment with Acinetobacter baumannii [16], 0.25 µg/mL (≈ 0.652 µM); with Escherichia coli [17] it was 0.03 µg/mL (≈ 0.0782 µM). Also, the MIC in the experiment with Pseudomonas aeruginosa [18] was more than 256 µg/mL.
